The source made the active and inactive calls. The calls are words filed in the database; no cut-off is given here.
What was measured:
[1] = Antiproliferative activity against human ALL5 cells incubated for 120 hrs followed by MTT addition further incubated for 48 hrs; assay type: functional, cell-based
BALB/3T3 = assay: Antiproliferative activity against mouse BALB/3T3 cells incubated for 72 hrs by SRB assay; assay type: ADME, cell-based; conditions: BALB/3T3, 72 h
ALL5 [2] = assay: Induction of apoptosis in human ALL-5 cells assessed as increase in PARP cleavage at 43 nM incubated for 48 hrs by Western blot analysis relative to control; assay type: functional, cell-based
[3] = Resistance index, ratio of IC50 for antiproliferative activity against human Lovo/DX cells to IC50 for antiproliferative activity against human LoVo cells; assay type: functional
A549 = assay: Antiproliferative activity against human A549 cells incubated for 72 hrs by SRB assay; assay type: functional, cell-based; conditions: A549, 72 h
LoVo = assay: Antiproliferative activity against human LoVo cells incubated for 72 hrs by SRB assay; assay type: functional, cell-based
MCF7 = assay: Antiproliferative activity against human MCF-7 cells incubated for 72 hrs by SRB assay; conditions: MCF7, 72 h
cells = assay type: functional, cell-based; conditions: Homo sapiens, LoVo/DX, 72 h
ALL5 [4] = assay: Induction of apoptosis in human ALL-5 cells assessed as increase in PARP cleavage at 23 nM incubated for 48 hrs by Western blot analysis relative to control; assay type: functional, cell-based
ALL5 [5] = assay: Cell cycle arrest in human ALL-5 cells assessed as accumulation at sub-G1 phase after 24 hrs at 5 times of IC50 by propidium iodide staining-based flow cytometric analysis relative to control; assay type: functional
ALL5 [6] = assay: Induction of apoptosis in human ALL-5 cells assessed as increase in PARP cleavage at 45 nM incubated for 48 hrs by Western blot analysis relative to control; assay type: functional, cell-based
ALL5 [7] = assay: Induction of apoptosis in human ALL-5 cells assessed as increase in PARP cleavage at 0.2 uM incubated for 24 hrs by Western blot analysis relative to control

## COc1cc2c(c(OC)c1OC)-c1ccc(OC)c(=O)cc1[C@@H](NC(C)=O)CC2 [COLCHICINE]
[1]
  IC50: 8.6 nM
BALB/3T3
  IC50: 106 nM
ALL5 [2]
  Activity: Active

## CCCCCCCCCC(=O)N[C@H]1CCc2cc(OC)c(OC)c(OC)c2-c2ccc(SC)c(=O)cc21
[3]
  Ratio IC50: 11.2
A549
  IC50: 13.3 nM
[1]
  IC50: 27.3 nM
BALB/3T3
  IC50: 87.2 nM
LoVo
  IC50: 7.6 nM
MCF7
  IC50: 66.3 nM
cells
  IC50: 84.6 nM

## CCC(=O)N[C@H]1CCc2cc(OC)c(OC)c(OC)c2-c2ccc(SC)c(=O)cc21
[3]
  Ratio IC50: 19.1
A549
  IC50: 13.2 nM
[1]
  IC50: 4.6 nM
BALB/3T3
  IC50: 17.9 nM
LoVo
  IC50: 8.5 nM
ALL5 [4]
  Activity: Active
MCF7
  IC50: 12.4 nM
cells
  IC50: 163 nM

## COc1cc2c(c(OC)c1OC)-c1ccc(SC)c(=O)cc1[C@@H](NC(=O)CCCCl)CC2
[3]
  Ratio IC50: 12.2
A549
  IC50: 13.3 nM
[1]
  IC50: 5.9 nM
BALB/3T3
  IC50: 20.2 nM
LoVo
  IC50: 8.4 nM
MCF7
  IC50: 11.9 nM
ALL5 [5]
  Activity: Active
cells
  IC50: 102 nM

## COc1c(I)c2c(c(OC)c1OC)-c1ccc(SC)c(=O)cc1[C@@H](N)CC2
[3]
  Ratio IC50: 6.7
A549
  IC50: 866 nM
[1]
  IC50: 135 nM
BALB/3T3
  IC50: 1420 nM
LoVo
  IC50: 126 nM
MCF7
  IC50: 1700 nM
cells
  IC50: 844 nM

## CCN(CC)C(=O)N[C@H]1CCc2c(I)c(OC)c(OC)c(OC)c2-c2ccc(SC)c(=O)cc21
[3]
  Ratio IC50: 12.3
A549
  IC50: 81.3 nM
[1]
  IC50: 81.9 nM
BALB/3T3
  IC50: 107 nM
LoVo
  IC50: 64.6 nM
MCF7
  IC50: 94.7 nM
cells
  IC50: 794 nM

## COCC(=O)N[C@H]1CCc2cc(OC)c(OC)c(OC)c2-c2ccc(SC)c(=O)cc21
[3]
  Ratio IC50: 16
A549
  IC50: 13.5 nM
[1]
  IC50: 8.5 nM
BALB/3T3
  IC50: 12 nM
LoVo
  IC50: 8.2 nM
MCF7
  IC50: 12.7 nM
cells
  IC50: 132 nM

## CCN(CC)C(=O)N[C@H]1CCc2cc(OC)c(OC)c(OC)c2-c2ccc(SC)c(=O)cc21
[3]
  Ratio IC50: 16
A549
  IC50: 133 nM
[1]
  IC50: 17.4 nM
BALB/3T3
  IC50: 88.2 nM
LoVo
  IC50: 69.1 nM
MCF7
  IC50: 113 nM
cells
  IC50: 1100 nM

## COc1c(I)c2c(c(OC)c1OC)-c1ccc(SC)c(=O)cc1[C@@H](NC(C)=O)CC2
[3]
  Ratio IC50: 91.7
[1]
  IC50: 8.7 nM
LoVo
  IC50: 7.4 nM
ALL5 [5]
  Activity: Active

## COc1cc2c(c(OC)c1OC)-c1ccc(SC)c(=O)cc1[C@@H](NC(=O)C(C)C)CC2
[3]
  Ratio IC50: 19.3
A549
  IC50: 15.8 nM
[1]
  IC50: 5.5 nM
BALB/3T3
  IC50: 69.9 nM
LoVo
  IC50: 9 nM
MCF7
  IC50: 13.5 nM
ALL5 [5]
  Activity: Active
cells
  IC50: 174 nM

## COc1c(I)c2c(c(OC)c1OC)-c1ccc(OC)c(=O)cc1[C@@H](NC(C)=O)CC2
[3]
  Ratio IC50: 278
A549
  IC50: 93.9 nM
[1]
  IC50: 15.5 nM
BALB/3T3
  IC50: 135 nM
LoVo
  IC50: 10.2 nM
MCF7
  IC50: 97.7 nM
cells
  IC50: 2780 nM

## CCCCCCCCCC(=O)N[C@H]1CCc2c(I)c(OC)c(OC)c(OC)c2-c2ccc(SC)c(=O)cc21
[3]
  Ratio IC50: 6.8
A549
  IC50: 833 nM
[1]
  IC50: 615 nM
BALB/3T3
  IC50: 305 nM
LoVo
  IC50: 568 nM
MCF7
  IC50: 846 nM
cells
  IC50: 3870 nM

## COc1cc2c(c(OC)c1OC)-c1ccc(SC)c(=O)cc1[C@@H](NC(=O)c1ccccc1)CC2
[3]
  Ratio IC50: 10.4
A549
  IC50: 11.2 nM
[1]
  IC50: 5.7 nM
BALB/3T3
  IC50: 21.6 nM
LoVo
  IC50: 5.6 nM
MCF7
  IC50: 11.2 nM
cells
  IC50: 57.9 nM

## COc1c(I)c2c(c(OC)c1OC)-c1ccc(SC)c(=O)cc1[C@@H](NC(=O)CCCCl)CC2
[3]
  Ratio IC50: 13.5
A549
  IC50: 82.8 nM
[1]
  IC50: 47.5 nM
BALB/3T3
  IC50: 87.8 nM
LoVo
  IC50: 39.2 nM
MCF7
  IC50: 89.4 nM
cells
  IC50: 529 nM

## CCC(=O)N[C@H]1CCc2c(I)c(OC)c(OC)c(OC)c2-c2ccc(SC)c(=O)cc21
[3]
  Ratio IC50: 23.3
A549
  IC50: 11.4 nM
[1]
  IC50: 9 nM
BALB/3T3
  IC50: 39.6 nM
ALL5 [6]
  Activity: Active
LoVo
  IC50: 7.2 nM
MCF7
  IC50: 10.8 nM
cells
  IC50: 168 nM

## COc1c(I)c2c(c(OC)c1OC)-c1ccc(SC)c(=O)cc1[C@@H](NC(=O)c1ccccc1)CC2
[3]
  Ratio IC50: 10.2
A549
  IC50: 13.3 nM
[1]
  IC50: 25.4 nM
BALB/3T3
  IC50: 76.2 nM
LoVo
  IC50: 7.2 nM
MCF7
  IC50: 47.5 nM
cells
  IC50: 72.9 nM

## COc1c(I)c2c(c(OC)c1OC)-c1ccc(SC)c(=O)cc1[C@@H](NC(=O)C(C)C)CC2
[3]
  Ratio IC50: 13
A549
  IC50: 62.6 nM
[1]
  IC50: 19.9 nM
BALB/3T3
  IC50: 69.7 nM
LoVo
  IC50: 7 nM
MCF7
  IC50: 44.5 nM
cells
  IC50: 91.3 nM

## COc1cccc2c1C(=O)c1c(O)c3c(c(O)c1C2=O)C[C@@](O)(C(=O)CO)C[C@@H]3O[C@H]1C[C@H](N)[C@H](O)[C@H](C)O1 [DOXORUBICIN]
A549
  IC50: 258 nM
ALL5 [7]
  Activity: Active
cells
  IC50: 4750 nM

## COCC(=O)N[C@H]1CCc2c(I)c(OC)c(OC)c(OC)c2-c2ccc(SC)c(=O)cc21
[3]
  Ratio IC50: 13.2
A549
  IC50: 10.5 nM
[1]
  IC50: 15 nM
BALB/3T3
  IC50: 51.2 nM
LoVo
  IC50: 7 nM
MCF7
  IC50: 10.5 nM
cells
  IC50: 92.2 nM

— ChEMBL document CHEMBL4680353, “Synthesis, anticancer activity and molecular docking studies of N-deacetylthiocolchicine and 4-iodo-N-deacetylthiocolchicine derivatives” (Bioorg Med Chem, 2021)
